“Also recorded” adds a separate entry of the source.
Columns and labels:
Format in all cases: biochemical
[1] = target: T1, SETD8 (Homo sapiens, UniProt Q9NQR1); test: SETD8 kinetics by MALDI-TOF MS enzymatic assay
T1 construct: SETD8 residues 186–352; His6 (N); made in house; host or cells: Escherichia coli Rosetta BL21 (DE3)pLysS
T1 sequence (Q9NQR1 186-352 isoform Q9NQR1-2): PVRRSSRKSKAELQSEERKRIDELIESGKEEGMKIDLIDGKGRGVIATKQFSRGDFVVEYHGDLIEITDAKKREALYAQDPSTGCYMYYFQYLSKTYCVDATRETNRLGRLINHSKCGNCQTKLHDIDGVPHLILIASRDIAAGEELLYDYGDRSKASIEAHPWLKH
Experimental: To determine the substrate specificity of SETD8 towards the two histone peptides bearing the unnatural lysine analogues KO and KN, a kinetic investigation was carried out employing a MALDI-TOF MS enzymatic assay[17],[18],[21]. KMT-catalyzed methylation of the oxalysine- and azalysine-containing histone peptides was characterized by slower substrate conversion rates (kcat) compared to their respective natural sequences, a result that we attribute to their poorer nucleophilic character due to the electron-withdrawing properties of the O and NH moieties. Furthermore, a highly hydrophobic channel of the methyltransferases is poorly tailored for significant electrostatic changes in the hydrophobic nature of the lysine side chain, likely leading to a larger penalty for desolvation of γ-azalysine and γ-oxalysine. Combined with the altered Km values for H4KO20 and H4KN20, this translated into a generally slightly worse catalytic efficiency for these two lysine analogues.
(§1) Human KMTs enzymes were expressed and purified as previously described[36]–[38]. The methyltransferase plasmid (SETD8 residues 186–352, SETD7 residues 1–366, GLP residues 951–1235, G9a residues 913–1193) transformed into Escherichia coli Rosetta BL21 (DE3)pLysS cells. Cultures were grown at 37 °C in LB media containing kanamycin and chloramphenicol. Cells were grown to an OD600 of 0.5–0.6 (approximately 2.5–3 h), at which point they induced by isopropyl β-D-1-thiogalactopyranoside (IPTG) and they were transferred to a temperature of 16 °C overnight. After letting the cells grow at this temperature, they were then harvested and lysed by sonication. The lysate was centrifuged at high-speed to remove unbroken cells. The supernatant was then centrifuged to further clean the lysate. Purification of the N-terminally his6-tagged KMTs was performed using Ni–NTA affinity chromatography column, which was prewashed with lysis buffer. Target KMT enzyme was then eluted using a linear gradient concentration of imidazole. The elute was then concentrated with centrifugal concentrators (Millipore). All KMT enzymes were further purified by gel filtration on a Superdex 75 column (GE Healthcare) on an AKTA system. Purified proteins were concentrated employing Amicon Ultra Centrifugal Filter Units (Millipore) with suitable molecular weight cutoffs. Proteins concentrations were determined using the Nanodrop DeNovix DS-11 spectrophotometer and the purity was monitored by SDS-PAGE on a 4–15% gradient polyacrylamide gel (Bio-Rad).
Kinetics studies were performed as described[17],[18],[21]. A solution of histone peptide (0–300 μM), was added to a solution of SAM (116 μM) in assay buffer (50 mM Tris, pH 8.0) at room temperature (final volume of 100 μL). […]

[2] = target: T2, SETD7 (Homo sapiens, UniProt Q8WTS6); test: Inhibition of SETD7-catalyzed methylation of 14-mer H3K4; conditions: for IC50: SETD7 200 nM, 14-mer H3K4 10 µM, inhibitor 1-200 µM, 4 repeats (dose-response of H3KO4)
T2 construct: SETD7 residues 1–366; His6 (N); made in house; host or cells: Escherichia coli Rosetta BL21 (DE3)pLysS
T2 sequence (Q8WTS6 1-366): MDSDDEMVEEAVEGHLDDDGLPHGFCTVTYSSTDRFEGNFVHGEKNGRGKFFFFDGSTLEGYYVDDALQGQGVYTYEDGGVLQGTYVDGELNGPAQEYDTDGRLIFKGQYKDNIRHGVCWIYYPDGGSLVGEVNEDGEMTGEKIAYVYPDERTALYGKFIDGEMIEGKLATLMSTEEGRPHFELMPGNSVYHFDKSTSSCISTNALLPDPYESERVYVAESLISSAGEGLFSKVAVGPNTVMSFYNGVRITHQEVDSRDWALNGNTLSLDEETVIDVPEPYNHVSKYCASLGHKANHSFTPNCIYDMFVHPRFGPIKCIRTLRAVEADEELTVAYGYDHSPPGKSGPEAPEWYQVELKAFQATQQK
Experimental: Residual activity assays monitoring the KMT-catalyzed methylation of the histone peptides were then carried out, aimed at providing competitive data of these two substrates as compared to the 14-mer H3K9 peptide for the active site of G9a/GLP, and to determine whether the two lysine analogues inhibit G9a- and GLP-catalyzed methylation of H3K9.
as §1
Supplementary Figure 19. […] Error bars represent the standard deviation from 4 repeats.

[3] = target: T2, SETD7; test: MALDI-TOF MS methylation assay with SETD7
Experimental: Histone peptides bearing the lysine analogues KO and KN were examined as substrates for the recombinantly expressed human KMTs using MALDI-TOF MS assays as a direct method to monitor histone methylation. We tested whether KO and KN can be methylated by di- and trimethyltransferases GLP and G9a, and monomethyltransferases SETD7 and SETD8. Samples containing the human KMT enzyme (2 µM), histone peptide (100 µM), and SAM (500 µM with GLP and G9a; 200 µM with SETD8 and SETD7) in Tris buffer (50 mM, pH 8.0) were incubated for 1 h at 37 °C. Following established enzymatic conditions[17]–[19],[21],[22], all lysine-containing histone peptides were efficiently methylated by the four KMTs (Fig. 5a,d,g,j, respectively). […] In the G9a assay, traces (< 5%) of the dimethylated species H3KO9me2 were also observed. […] We further analyzed the product distribution of these two peptide substrates with G9a and GLP throughout the time course of methylation.
Red spectra show 1 h reactions at 37 °C including KMTs (2 µM), histone peptide (100 µM) and SAM (500 µM for GLP/G9a and 200 µM for SETD8/SED7) and black spectra the no-enzyme controls.
The lack of methylation of these two analogues with SETD7 indicated a selectivity between KMTs.
as §1
Histone methyltransferase assay was carried out as described in 30 µL final total volume[17]–[19],[21],[22]. In brief, purified KMTs enzymes (2 µM of each enzyme per each reaction) were incubated with 100 µM of purified histone peptides in the methyltransferase assay buffer Tris–HCl (pH 8.0) and methyl donor SAM (500 µM with GLP and G9a; 200 µM with SETD8 and SETD7) for 1 h at 37 °C. 3 µL of reaction mixture was quenched with an equal amount of MeOH (1:1 ratio). Then, 3 µL of this mixture was added to an equal amount volume of a standard α-cyano-4-hydroxycinnamic acid matrix solution for spotting on a MALDI plate (Stainless ground steel 96/12 Bruker-Daltonik, Bremen-Germany). The mass spectra of peptides were analyzed by MALDI-TOF MS. […]

[4] = target: T3, G9a (Homo sapiens, UniProt Q96KQ7); test: MALDI-TOF MS methylation assay with G9a; conditions: G9a 2 µM, peptide 100 µM, SAM 500 µM, Tris 50 mM, pH 8.0, 1 h at 37 °C
T3 construct: G9a residues 913–1193; His6 (N); made in house; host or cells: Escherichia coli Rosetta BL21 (DE3)pLysS
T3 sequence (Q96KQ7 913-1193): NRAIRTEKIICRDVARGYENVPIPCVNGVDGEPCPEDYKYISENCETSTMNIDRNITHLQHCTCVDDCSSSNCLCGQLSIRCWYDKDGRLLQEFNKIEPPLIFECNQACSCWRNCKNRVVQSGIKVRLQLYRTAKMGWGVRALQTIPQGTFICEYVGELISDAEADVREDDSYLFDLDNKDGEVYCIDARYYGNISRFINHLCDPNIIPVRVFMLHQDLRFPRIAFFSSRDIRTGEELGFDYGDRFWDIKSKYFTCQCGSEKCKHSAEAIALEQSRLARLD
Experimental: as §1, with “system.” for “system. Purified proteins were concentrated employing Amicon Ultra Centrifugal Filter Units (Millipore) with suitable molecular weight cutoffs. Proteins concentrations were determined using the Nanodrop DeNovix DS-11 spectrophotometer and the purity was monitored by SDS-PAGE on a 4–15% gradient polyacrylamide gel (Bio-Rad).”

[5] = target: T4, GLP (Homo sapiens, UniProt Q9H9B1); test: NMR analysis of GLP-catalyzed methylation; conditions: GLP 8 µM; peptide 400 µM; SAM 2 mM; Tris-d11 buffer pD 8.0; 1 h at 37 °C; 1H NMR and 1H-13C HSQC
T4 construct: GLP residues 951–1235; His6 (N); made in house; host or cells: Escherichia coli Rosetta BL21 (DE3)pLysS
T4 sequence (Q9H9B1 982-1266): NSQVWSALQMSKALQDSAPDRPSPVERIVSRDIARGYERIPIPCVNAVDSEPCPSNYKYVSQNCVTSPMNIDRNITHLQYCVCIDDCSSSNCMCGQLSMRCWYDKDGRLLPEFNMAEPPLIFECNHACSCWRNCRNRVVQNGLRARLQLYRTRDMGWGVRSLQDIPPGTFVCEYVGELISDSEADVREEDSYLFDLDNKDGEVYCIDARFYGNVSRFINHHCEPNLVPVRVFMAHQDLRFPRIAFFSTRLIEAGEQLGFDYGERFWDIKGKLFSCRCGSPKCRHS
Experimental: as §1, with “system.” for “system. Purified proteins were concentrated employing Amicon Ultra Centrifugal Filter Units (Millipore) with suitable molecular weight cutoffs. Proteins concentrations were determined using the Nanodrop DeNovix DS-11 spectrophotometer and the purity was monitored by SDS-PAGE on a 4–15% gradient polyacrylamide gel (Bio-Rad).”

[6] = target: T4, GLP; test: MALDI-TOF MS methylation assay with GLP; conditions: GLP 2 µM, peptide 100 µM, SAM 500 µM, Tris 50 mM, pH 8.0, 1 h at 37 °C
Experimental: as §1, with “system.” for “system. Purified proteins were concentrated employing Amicon Ultra Centrifugal Filter Units (Millipore) with suitable molecular weight cutoffs. Proteins concentrations were determined using the Nanodrop DeNovix DS-11 spectrophotometer and the purity was monitored by SDS-PAGE on a 4–15% gradient polyacrylamide gel (Bio-Rad).”

[7] = target: T3, G9a; test: Residual activity / inhibition of G9a-catalyzed methylation of H3K9; conditions: G9a 100 nM; 14-mer H3K9 5 µM; analogue 100 µM
Experimental: as §1, with “system.” for “system. Purified proteins were concentrated employing Amicon Ultra Centrifugal Filter Units (Millipore) with suitable molecular weight cutoffs. Proteins concentrations were determined using the Nanodrop DeNovix DS-11 spectrophotometer and the purity was monitored by SDS-PAGE on a 4–15% gradient polyacrylamide gel (Bio-Rad).”

[8] = target: T4, GLP; test: Residual activity / inhibition of GLP-catalyzed methylation of H3K9; conditions: GLP 100 nM; 14-mer H3K9 5 µM; analogue 100 µM
Experimental: as §1, with “system.” for “system. Purified proteins were concentrated employing Amicon Ultra Centrifugal Filter Units (Millipore) with suitable molecular weight cutoffs. Proteins concentrations were determined using the Nanodrop DeNovix DS-11 spectrophotometer and the purity was monitored by SDS-PAGE on a 4–15% gradient polyacrylamide gel (Bio-Rad).”

[9] = SETD8 2 µM, peptide 0–300 μM, SAM 116 μM, 50 mM Tris, pH 8.0, room temperature, 10 min, MALDI-TOF MS, value ± SD, replicates
[10] = SETD7 2 µM, peptide 100 µM, SAM 200 µM, Tris 50 mM, pH 8.0, 1 h at 37 °C

GGAKRHRK^20VLRDNIQ [H4K20, native peptide fragment 13–27 of H4]
kcat/Km ([1]; SETD8 2 µM, peptide 0–300 μM, SAM 116 μM, 50 mM Tris, pH 8.0, room temperature, 10 min, MALDI-TOF MS): 5.21 mM⁻¹ min⁻¹
Km [1, 9]: 104 ± 25.3 µM
kcat [1, 9]: 0.54 ± 0.11 min⁻¹
order in which SETD8 tolerates modifications at the γ position (kinetics) ([1]; comparison of kinetics data including H4KC20 of ref 18): H4K20 > H4KC20 > H4KN20 > H4KO20

C[C@H](N)C(=O)N[C@@H](CCCNC(=N)N)C(=O)N[C@H](C(=O)N[C@@H](COCCN)C(=O)N[C@@H](CCC(N)=O)C(=O)N[C@H](C(=O)N[C@@H](C)C(=O)N[C@@H](CCCNC(=N)N)C(=O)N[C@@H](CCCCN)C(=O)N[C@@H](CO)C(=O)N[C@H](C(=O)NCC(=O)NCC(=O)N[C@@H](CCCCN)C(=O)N[C@@H](C)C(N)=O)[C@@H](C)O)[C@@H](C)O)[C@@H](C)O [H3KO4]
IC50 [2]: 38.9 µM
monomethylated species (traces) with SETD7 [3, 10]: < 5%

C[C@H](N)C(=O)N[C@@H](CCCNC(=N)N)C(=O)N[C@H](C(=O)N[C@@H](CNCCN)C(=O)N[C@@H](CCC(N)=O)C(=O)N[C@H](C(=O)N[C@@H](C)C(=O)N[C@@H](CCCNC(=N)N)C(=O)N[C@@H](CCCCN)C(=O)N[C@@H](CO)C(=O)N[C@H](C(=O)NCC(=O)NCC(=O)N[C@@H](CCCCN)C(=O)N[C@@H](C)C(N)=O)[C@@H](C)O)[C@@H](C)O)[C@@H](C)O [H3KN4]
inhibition of SETD7 in words ([2]; 14-mer H3K4 substrate): inactive
IC50 [2]: > 100 µM
methylation with SETD7 [3, 10]: very low levels of methylation were detected; also recorded: significantly reduced
monomethylated species (traces) with SETD7 [3, 10]: < 5%
methylation with SETD7 at high concentration, 1 h ([3]; SETD7 10 µM, SAM 1 mM, 37 °C, 1 h): poorly catalyzed traces
methylation with SETD7 at high concentration, 3 h ([3]; SETD7 10 µM, SAM 1 mM, 37 °C, 3 h): poorly catalyzed traces; also recorded: only traces of H3KO4me and H3KN4me observed

ARTKQTARK^9STGGKA [H3K9, native histone peptide, N-terminal 15-residues of H3]
methylation products with G9a [4]: complete trimethylation
methylation observed by NMR [5]: resulted in a signal of H3K9me3
methylation products with GLP [6]: complete trimethylation
inhibition of G9a in words [7]: outcompetes H3KO9 and H3KN9 peptides for binding in the active site of G9a/GLP
inhibition of GLP in words [8]: outcompetes H3KO9 and H3KN9 peptides for binding in the active site of G9a/GLP
